Measurements published in publication PMC7175277, “Hydroxylamine Analogue of Agmatine: Magic Bullet for Arginine Decarboxylase” (Biomolecules, 2020).
“Also recorded” adds a separate entry of the source.

Assays:
E. coli ADC = molecular target: T1, E. coli ADC (Escherichia coli, UniProt P21170); experiment: E. coli ADC activity assay (HPLC of agmatine); type: biochemical; details: for inhibition at 0.1 µM: AO-Agm 100 nM; for inhibition at 0.1 µM / inhibition at 0.5 µM: no preincubation; for inhibition at 0.5 µM: AO-Agm 500 nM
T1 construct: The kinetic parameters determined for the partially purified biosynthetic ADC from E. coli; endogenous in cells; host or cells: E. coli DH5α (39-53% ammonium sulphate fraction of the lysate, desalted)
T1 sequence (P21170 1-658): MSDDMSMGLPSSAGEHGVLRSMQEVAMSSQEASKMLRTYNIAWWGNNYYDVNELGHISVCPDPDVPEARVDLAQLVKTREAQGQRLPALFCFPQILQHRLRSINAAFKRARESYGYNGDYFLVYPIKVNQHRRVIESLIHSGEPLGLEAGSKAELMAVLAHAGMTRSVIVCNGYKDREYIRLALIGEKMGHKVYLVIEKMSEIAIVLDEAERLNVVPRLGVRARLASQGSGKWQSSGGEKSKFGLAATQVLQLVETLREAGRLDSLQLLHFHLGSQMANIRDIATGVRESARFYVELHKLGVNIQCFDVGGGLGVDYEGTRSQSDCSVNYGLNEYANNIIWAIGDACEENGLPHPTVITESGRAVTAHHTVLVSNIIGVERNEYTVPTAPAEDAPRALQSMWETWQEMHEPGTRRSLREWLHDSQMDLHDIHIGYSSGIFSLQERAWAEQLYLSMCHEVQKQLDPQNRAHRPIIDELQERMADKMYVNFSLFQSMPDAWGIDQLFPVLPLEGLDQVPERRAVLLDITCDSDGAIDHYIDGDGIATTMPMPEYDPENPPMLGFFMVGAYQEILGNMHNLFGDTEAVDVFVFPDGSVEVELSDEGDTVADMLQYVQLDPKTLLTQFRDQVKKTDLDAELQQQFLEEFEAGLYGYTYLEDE
Experimental: (§1) The purification was performed using a modified procedure of earlier publication. E. coli strain DH5α was grown in Luria-Bertani broth at +37 °C with shaking (200 rpm) overnight. The cells were collected by centrifugation and the pellet was homogenized with Potter-Elvehjem in 10 volumes (w/v) of ice-cold 50 mM Tris-HCl pH 7.4, 1 mM DTT. The cell debris was removed by centrifugation at 12,000 g for 30 min at +4 °C. Solid (NH4)2SO4 was added to the supernatant, and the pellet precipitating between 39% and 53% saturation was separated. The precipitate was resuspended in ice-cold buffer containing 50 mM Tris-HCl pH 7.4 and 1 mM DTT and desalted by passage through Sephadex G-25 column (NAP-10 column, GE Healthcare). The protein concentration was measured with Bio-Rad protein reagent, and the partially purified enzyme preparation was mixed with 20% glycerol and aliquoted for storage at −80 °C.
[…] The ODC reaction mixture contained 50 mM Tris-HCl pH 7.8, 1 mM EDTA, 2.4 mM DTT, 0.1 mM PLP and 20 μg of partially purified enzyme preparation. The mixtures were either preincubated or not preincubated for 15 min at +40 °C in the presence of the inhibitor, after which the reaction was started by the addition of 18 μL of 10× substrate (L-Arg for ADC and L-Orn for ODC). After incubation for 30 min (ADC) or 20 min (ODC) at +40 °C, 20 μL of 50% sulphosalicylic acid containing 50 μM diaminoheptane (internal standard) was added and the samples were analyzed for the content of agmatine (ADC) and Put (ODC) with HPLC as described previously. The kinetic parameters and IC50 values were determined with the aid of GraphPad Prism version 5.03 using nonlinear regression analysis.

E. coli ODC = E. coli ODC (Escherichia coli, UniProt P21169); experiment: E. coli ODC activity assay (HPLC of Put); type: biochemical
Chain of E. coli ODC (P21169 whole entry): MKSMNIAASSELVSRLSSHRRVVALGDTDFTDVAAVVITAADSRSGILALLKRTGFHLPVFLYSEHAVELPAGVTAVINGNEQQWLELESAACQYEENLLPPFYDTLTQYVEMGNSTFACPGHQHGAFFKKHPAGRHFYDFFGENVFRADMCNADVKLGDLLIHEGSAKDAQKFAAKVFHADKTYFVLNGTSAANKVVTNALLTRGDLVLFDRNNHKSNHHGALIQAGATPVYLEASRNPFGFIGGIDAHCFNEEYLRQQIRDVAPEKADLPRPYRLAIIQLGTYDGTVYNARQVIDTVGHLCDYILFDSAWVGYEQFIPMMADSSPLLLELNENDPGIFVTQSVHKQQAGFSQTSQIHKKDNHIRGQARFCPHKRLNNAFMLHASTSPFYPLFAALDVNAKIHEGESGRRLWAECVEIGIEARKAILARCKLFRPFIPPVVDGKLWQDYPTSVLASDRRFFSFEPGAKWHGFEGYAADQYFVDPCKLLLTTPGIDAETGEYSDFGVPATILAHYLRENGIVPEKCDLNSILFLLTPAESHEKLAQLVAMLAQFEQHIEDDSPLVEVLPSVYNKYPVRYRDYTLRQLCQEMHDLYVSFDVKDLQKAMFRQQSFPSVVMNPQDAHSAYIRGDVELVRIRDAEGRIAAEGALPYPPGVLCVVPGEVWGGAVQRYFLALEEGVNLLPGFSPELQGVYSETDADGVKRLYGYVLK
Experimental: as §1
The ADC reaction mixture contained 50 mM Tris-HCl pH 7.8, 4 mM MgCl2, 1 mM DTT, 1.0 or 0.1 mM PLP and 20 μg of partially purified enzyme preparation in a total volume of 162 μL. The ODC reaction mixture contained 50 mM Tris-HCl pH 7.8, 1 mM EDTA, 2.4 mM DTT, 0.1 mM PLP and 20 μg of partially purified enzyme preparation. […] After incubation for 30 min (ADC) or 20 min (ODC) at +40 °C, 20 μL of 50% sulphosalicylic acid containing 50 μM diaminoheptane (internal standard) was added and the samples were analyzed for the content of agmatine (ADC) and Put (ODC) with HPLC as described previously. The kinetic parameters and IC50 values were determined with the aid of GraphPad Prism version 5.03 using nonlinear regression analysis.

[1] = test system: DU145 prostate cancer cells; experiment: Intracellular polyamine pools of DU145 cells; type: cell-based; details: 3 days
Experimental: DU145 prostate cancer cells were cultured in high-glucose Dulbecco’s Modified Eagle’s Medium supplemented with 10% heat-inactivated fetal bovine serum, 2 mM L-glutamine and 50 μg/mL gentamycin (all from Sigma-Aldrich). The cells were plated on 6-well plates and allowed to attach overnight. […] The cells were harvested, and the pellet was mixed with 150 μL of 5% sulphosalicylic acid containing 5 μM diaminoheptane (internal standard). Polyamine analysis was carried out as described previously.

[2] = 0.1 mM PLP, 15 min preincubation, 0.15 mM L-Arg
[3] = AO-Agm 10 μM in the presence of SC (1 mM)
[4] = AO-Agm 100 μM in the presence of SC (1 mM)
[5] = AO-Agm 1 mM in the presence of SC (1 mM)

N=C(N)NCCCON [AO-Agm, 1-aminooxy-3-guanidinopropane]
IC50 (E. coli ADC; 0.01 mM PLP, 15 min preincubation, 0.15 mM L-Arg): 26 ± 1 nM
Effect of omitting the preincubation time on the efficiency of ADC inhibition (E. coli ADC; 0.1 mM PLP, 0.15 mM L-Arg): did not significantly alter
IC50 (E. coli ADC; [2]): 30 ± 1 nM
Potency as ADC inhibitor relative to DFMA (more potent) (E. coli ADC; [2]): 330 times
IC50 (E. coli ADC; 1 mM PLP, 15 min preincubation, 0.15 mM L-Arg): 89 ± 1 nM
inhibition at 0.1 µM (E. coli ADC; 0.15 mM L-Arg, 0.1 mM PLP): 25%
inhibition at 0.1 µM (E. coli ADC; 1.5 mM L-Arg, 0.1 mM PLP): ~5%
inhibition at 0.5 µM (E. coli ADC; 0.15 mM L-Arg, 0.1 mM PLP): 95%
inhibition at 0.5 µM (E. coli ADC; 1.5 mM L-Arg, 0.1 mM PLP): 60%
Potency towards E. coli ODC relative to E. coli ADC (E. coli ODC): almost two orders of magnitude less potent; also recorded: almost two orders of magnitude less efficient
Put [1, 3]: 922 ± 60 pmol/mg Protein
Spd [1, 3]: 6405 ± 61 pmol/mg Protein
Spm [1, 3]: 3903 ± 72 pmol/mg Protein
Put ([1]; AO-Agm 10 μM, no SC): 1515 ± 98 pmol/mg Protein
Spd ([1]; AO-Agm 10 μM, no SC): 7237 ± 73 pmol/mg Protein
Spm ([1]; AO-Agm 10 μM, no SC): 3782 ± 55 pmol/mg Protein
Put [1, 4]: 954 ± 115 pmol/mg Protein
Spd [1, 4]: 6280 ± 122 pmol/mg Protein
Spm [1, 4]: 3621 ± 87 pmol/mg Protein
Put ([1]; AO-Agm 100 μM, no SC): 1447 ± 43 pmol/mg Protein
Spd ([1]; AO-Agm 100 μM, no SC): 7047 ± 155 pmol/mg Protein
Spm ([1]; AO-Agm 100 μM, no SC): 3682 ± 152 pmol/mg Protein
Spd [1, 5]: 1074 ± 159 pmol/mg Protein
Spm [1, 5]: 2389 ± 105 pmol/mg Protein
Put ([1]; AO-Agm 1 mM, no SC): 1074 ± 30 pmol/mg Protein
Spd ([1]; AO-Agm 1 mM, no SC): 3609 ± 124 pmol/mg Protein
Spm ([1]; AO-Agm 1 mM, no SC): 3795 ± 98 pmol/mg Protein
